Target: AgrA (Staphylococcus aureus, UniProt P0A0I7)
Assay: cell-based
Parameters: species or system S. aureus USA300 strain UAMS-1625
Settings: for Ratio IC50 (in presence of HSA)/IC50 (in absence of HSA): 40 mg/mL HSA vs without HSA
[1] = IC50 at 40 mg/mL HSA, LB medium supplemented with 40 mg/mL human serum albumin
[2] = IC50 without HSA, LB medium, without HSA

Chain of AgrA (P0A0I7 whole entry): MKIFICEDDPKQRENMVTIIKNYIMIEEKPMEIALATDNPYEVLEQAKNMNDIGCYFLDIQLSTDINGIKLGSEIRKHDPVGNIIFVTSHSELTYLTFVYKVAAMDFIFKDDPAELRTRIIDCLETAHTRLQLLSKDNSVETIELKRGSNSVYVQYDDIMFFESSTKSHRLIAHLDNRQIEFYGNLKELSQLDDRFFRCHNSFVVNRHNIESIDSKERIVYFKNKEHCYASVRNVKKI

Cc1ccc(S(=O)(=O)c2nnn3c2[nH]c(=O)c2ccc(N4CC5(COC5)C4)cc23)c(C)c1 [Compound 13, 3-(2,4-dimethylbenzenesulfonyl)-8-{2-oxa-6-azaspiro[3.3]heptan-6-yl}-4H,5H-[1,2,3]triazolo[1,5-a]quinazolin-5-one]
Ratio IC50 (in presence of HSA)/IC50 (in absence of HSA): ++ (ratio ≤ 125)
IC50 [1]: 22.1 to 111 µM
IC50 [2]: < 2.21 µM

Cc1ccc(S(=O)(=O)c2nnn3c2[nH]c(=O)c2ccc(N4CC5(CN(C)C5)C4)cc23)c(C)c1 [Compound 14, 3-(2,4-dimethylbenzenesulfonyl)-8-{6-methyl-2,6-diazaspiro[3.3]heptan-2-yl}-4H,5H-[1,2,3]triazolo[1,5-a]quinazolin-5-one]
Ratio IC50 (in presence of HSA)/IC50 (in absence of HSA): +++ (ratio ≤ 25)
IC50 [1]: 21.5 to 108 µM
IC50 [2]: 2.15 to 10.8 µM

Cc1ccc(S(=O)(=O)c2n[nH]n3c2nc(=O)c2ccc(N4CCC5(CC4)CNCCO5)cc23)c(C)c1 [Compound 15, 3-(2,4-dimethylbenzenesulfonyl)-8-{1-oxa-4,9-diazaspiro[5.5]undecan-9-yl}-1H,5H-[1,2,3]triazolo[1,5-a]quinazolin-5-one]
Ratio IC50 (in presence of HSA)/IC50 (in absence of HSA): +++ (ratio ≤ 25)
IC50 [1]: 19.7 to 98.3 µM
IC50 [2]: < 1.97 µM

Cc1ccc(S(=O)(=O)c2n[nH]n3c2nc(=O)c2ccc(N4CCC5(CC4)CN(C)CCO5)cc23)c(C)c1 [Compound 16, 3-(2,4-dimethylbenzenesulfonyl)-8-{4-methyl-1-oxa-4,9-diazaspiro[5.5]undecan-9-yl}-1H,5H-[1,2,3]triazolo[1,5-a]quinazolin-5-one]
Ratio IC50 (in presence of HSA)/IC50 (in absence of HSA): ++ (ratio ≤ 125)
IC50 [1]: 19.1 to 95.7 µM
IC50 [2]: < 1.91 µM

Cc1ccc(S(=O)(=O)c2n[nH]n3c2nc(=O)c2ccc(N4CCOC5(CCNCC5)C4)cc23)c(C)c1 [Compound 17, 3-(2,4-dimethylbenzenesulfonyl)-8-{1-oxa-4,9-diazaspiro[5.5]undecan-4-yl}-1H,5H-[1,2,3]triazolo[1,5-a]quinazolin-5-one]
Ratio IC50 (in presence of HSA)/IC50 (in absence of HSA): +++ (ratio ≤ 25)
IC50 [1]: 19.7 to 98.3 µM
IC50 [2]: 1.97 to 9.83 µM

Cc1ccc(S(=O)(=O)c2n[nH]n3c2nc(=O)c2ccc(N4CCOC5(CCN(C)CC5)C4)cc23)c(C)c1 [Compound 18, 3-(2,4-dimethylbenzenesulfonyl)-8-{9-methyl-1-oxa-4,9-diazaspiro[5.5]undecan-4-yl}-1H,5H-[1,2,3]triazolo[1,5-a]quinazolin-5-one]
Ratio IC50 (in presence of HSA)/IC50 (in absence of HSA): +++ (ratio ≤ 25)
IC50 [1]: 19.1 to 95.7 µM
IC50 [2]: 1.91 to 9.57 µM

Cc1ccc(S(=O)(=O)c2n[nH]n3c2nc(=O)c2ccc(N4CCC5(CCNC[C@@H]5O)CC4)cc23)c(C)c1 [Compound 19, 3-(2,4-dimethylbenzenesulfonyl)-8-[(7R)-7-hydroxy-3,9-diazaspiro[5.5]undecan-3-yl]-1H,5H-[1,2,3]triazolo[1,5-a]quinazolin-5-one]
Ratio IC50 (in presence of HSA)/IC50 (in absence of HSA): +++ (ratio ≤ 25)
IC50 [1]: 19.1 to 95.7 µM
IC50 [2]: 1.91 to 9.57 µM

Cc1ccc(S(=O)(=O)c2n[nH]n3c2nc(=O)c2ccc(N4CC5(CC(O)C5)C4)cc23)c(C)c1 [Compound 20, 3-(2,4-dimethylbenzenesulfonyl)-8-{6-hydroxy-2-azaspiro[3.3]heptan-2-yl}-1H,5H-[1,2,3]triazolo[1,5-a]quinazolin-5-one]
Ratio IC50 (in presence of HSA)/IC50 (in absence of HSA): ++ (ratio ≤ 125)
IC50 [1]: 21.5 to 107 µM
IC50 [2]: < 2.15 µM

Cc1ccc(S(=O)(=O)c2n[nH]n3c2nc(=O)c2ccc(N4CC5(C4)CC(C)(O)C5)cc23)c(C)c1 [Compound 21, 3-(2,4-dimethylbenzenesulfonyl)-8-{6-hydroxy-6-methyl-2-azaspiro[3.3]heptan-2-yl}-1H,5H-[1,2,3]triazolo[1,5-a]quinazolin-5-one]
Ratio IC50 (in presence of HSA)/IC50 (in absence of HSA): ++ (ratio ≤ 125)
IC50 [1]: 20.9 to 104 µM
IC50 [2]: < 2.09 µM

Cc1ccc(S(=O)(=O)c2nnn3c2[nH]c(=O)c2ccc(N4CCN(C)CC4)cc23)c(C)c1 [Compound 22, 3-(2,4-dimethylbenzenesulfonyl)-8-(4-methylpiperazin-1-yl)-4H,5H-[1,2,3]triazolo[1,5-a]quinazolin-5-one]
Ratio IC50 (in presence of HSA)/IC50 (in absence of HSA): +++ (ratio ≤ 25)
IC50 [1]: 22.1 to 110 µM
IC50 [2]: < 2.21 µM

Cc1ccc(S(=O)(=O)c2nnn3c2[nH]c(=O)c2ccc(N4C[C@@H](C)N[C@@H](C)C4)cc23)c(C)c1 [Compound 24, 3-(2,4-dimethylbenzenesulfonyl)-8-[(3R,5S)-3,5-dimethylpiperazin-1-yl]-4H,5H-[1,2,3]triazolo[1,5-a]quinazolin-5-one]
Ratio IC50 (in presence of HSA)/IC50 (in absence of HSA): +++ (ratio ≤ 25)
IC50 [1]: 21.4 to 107 µM
IC50 [2]: 2.14 to 10.7 µM

Cc1ccc(S(=O)(=O)c2nnn3c2[nH]c(=O)c2ccc(N4C[C@@H](C)N(C)[C@@H](C)C4)cc23)c(C)c1 [Compound 25, rac-3-(2,4-dimethylbenzenesulfonyl)-8-[(3R,5S)-3,4,5-trimethylpiperazin-1-yl]-4H,5H-[1,2,3]triazolo[1,5-a]quinazolin-5-one]
Ratio IC50 (in presence of HSA)/IC50 (in absence of HSA): +++ (ratio ≤ 25)
IC50 [1]: < 20.8 µM
IC50 [2]: < 2.08 µM

Cc1ccc(S(=O)(=O)c2nnn3c2[nH]c(=O)c2ccc(N4CC(C)NC(C)C4)cc23)c(C)c1 (stereo not drawn) [Compound 26, 3-(2,4-dimethylbenzenesulfonyl)-8-(3,5-dimethylpiperazin-1-yl)-4H,5H-[1,2,3]triazolo[1,5-a]quinazolin-5-one]
Ratio IC50 (in presence of HSA)/IC50 (in absence of HSA): +++ (ratio ≤ 25)
IC50 [1]: 21.4 to 107 µM
IC50 [2]: 2.14 to 10.7 µM

Cc1ccc(S(=O)(=O)c2nnn3c2[nH]c(=O)c2ccc(N4CC(C)N(C)C(C)C4)cc23)c(C)c1 (stereo not drawn) [Compound 27, 3-(2,4-dimethylbenzenesulfonyl)-8-(3,4,5-trimethylpiperazin-1-yl)-4H,5H-[1,2,3]triazolo[1,5-a]quinazolin-5-one]
Ratio IC50 (in presence of HSA)/IC50 (in absence of HSA): +++ (ratio ≤ 25)
IC50 [1]: 20.8 to 104 µM
IC50 [2]: < 2.08 µM

Cc1ccc(S(=O)(=O)c2nnn3c2[nH]c(=O)c2ccc(N4CCN(C)C(C)(C)C4)cc23)c(C)c1 [Compound 29, 3-(2,4-dimethylbenzenesulfonyl)-8-(3,3,4-trimethylpiperazin-1-yl)-4H,5H-[1,2,3]triazolo[1,5-a]quinazolin-5-one]
Ratio IC50 (in presence of HSA)/IC50 (in absence of HSA): ++ (ratio ≤ 125)
IC50 [1]: 20.8 to 104 µM
IC50 [2]: 2.08 to 10.4 µM

Cc1ccc(S(=O)(=O)c2nnn3c2[nH]c(=O)c2ccc(N4CCN5CCOCC5C4)cc23)c(C)c1 (stereo not drawn) [Compound 30, 3-(2,4-dimethylbenzenesulfonyl)-8-{octahydropyrazino[2,1-c][1,4]oxazin-8-yl}-4H,5H-[1,2,3]triazolo[1,5-a]quinazolin-5-one]
Ratio IC50 (in presence of HSA)/IC50 (in absence of HSA): +++ (ratio ≤ 25)
IC50 [1]: 20.2 to 101 µM
IC50 [2]: 2.02 to 10.1 µM

CNC1CCN(c2ccc3c(=O)[nH]c4c(S(=O)(=O)c5ccc(C)cc5C)nnn4c3c2)CC1 [Compound 31, 3-(2,4-dimethylbenzenesulfonyl)-8-[4-(methylamino)piperidin-1-yl]-4H,5H-[1,2,3]triazolo[1,5-a]quinazolin-5-one]
Ratio IC50 (in presence of HSA)/IC50 (in absence of HSA): +++ (ratio ≤ 25)
IC50 [1]: 21.4 to 107 µM
IC50 [2]: < 2.14 µM

Cc1ccc(S(=O)(=O)c2nnn3c2[nH]c(=O)c2ccc(N4CCC(N(C)C)CC4)cc23)c(C)c1 [Compound 32, 8-[4-(dimethylamino)piperidin-1-yl]-3-(2,4-dimethylbenzenesulfonyl)-4H,5H-[1,2,3]triazolo[1,5-a]quinazolin-5-one]
Ratio IC50 (in presence of HSA)/IC50 (in absence of HSA): +++ (ratio ≤ 25)
IC50 [1]: 20.8 to 104 µM
IC50 [2]: 2.08 to 10.4 µM

Cc1ccc(S(=O)(=O)c2nnn3c2[nH]c(=O)c2ccc(N4CCC(N)CC4)cc23)c(C)c1 [Compound 33, 8-(4-aminopiperidin-1-yl)-3-(2,4-dimethylbenzenesulfonyl)-4H,5H-[1,2,3]triazolo[1,5-a]quinazolin-5-one]
Ratio IC50 (in presence of HSA)/IC50 (in absence of HSA): +++ (ratio ≤ 25)
IC50 [1]: < 22.1 µM
IC50 [2]: < 2.21 µM

CNC1CCN(c2ccc3c(=O)[nH]c4c(S(=O)(=O)c5ccc(C)cc5C)nnn4c3c2)C1 (stereo not drawn) [Compound 34, 3-(2,4-dimethylbenzenesulfonyl)-8-[3-(methylamino)pyrrolidin-1-yl]-4H,5H-[1,2,3]triazolo[1,5-a]quinazolin-5-one]
Ratio IC50 (in presence of HSA)/IC50 (in absence of HSA): ++ (ratio ≤ 125)
IC50 [1]: 22.1 to 110 µM
IC50 [2]: < 2.21 µM

Cc1ccc(S(=O)(=O)c2nnn3c2[nH]c(=O)c2ccc(N4CC[C@@H](N)C4)cc23)c(C)c1 [Compound 35, 8-[(3R)-3-aminopyrrolidin-1-yl]-3-(2,4-dimethylbenzenesulfonyl)-4H,5H-[1,2,3]triazolo[1,5-a]quinazolin-5-one]
Ratio IC50 (in presence of HSA)/IC50 (in absence of HSA): +++ (ratio ≤ 25)
IC50 [1]: 22.8 to 114 µM
IC50 [2]: < 2.28 µM

Cc1ccc(S(=O)(=O)c2nnn3c2[nH]c(=O)c2ccc(N4CCN5CCCC5C4)cc23)c(C)c1 (stereo not drawn) [Compound 36, 3-(2,4-dimethylbenzenesulfonyl)-8-{octahydropyrrolo[1,2-a]pyrazin-2-yl}-4H,5H-[1,2,3]triazolo[1,5-a]quinazolin-5-one]
Ratio IC50 (in presence of HSA)/IC50 (in absence of HSA): +++ (ratio ≤ 25)
IC50 [1]: 20.9 to 104 µM
IC50 [2]: < 2.09 µM

Cc1ccc(S(=O)(=O)c2nnn3c2[nH]c(=O)c2ccc(N4CCN5CCC[C@H]5C4)cc23)c(C)c1 [Compound 37, 8-[(8aS)-octahydropyrrolo[1,2-a]pyrazin-2-yl]-3-(2,4-dimethylbenzenesulfonyl)-4H,5H-[1,2,3]triazolo[1,5-a]quinazolin-5-one]
Ratio IC50 (in presence of HSA)/IC50 (in absence of HSA): +++ (ratio ≤ 25)
IC50 [1]: 20.9 to 104 µM
IC50 [2]: 2.09 to 10.4 µM

Cc1ccc(S(=O)(=O)c2nnn3c2[nH]c(=O)c2ccc(N4CCN5CCC[C@@H]5C4)cc23)c(C)c1 [Compound 38, 8-[(8aR)-octahydropyrrolo[1,2-a]pyrazin-2-yl]-3-(2,4-dimethylbenzenesulfonyl)-4H,5H-[1,2,3]triazolo[1,5-a]quinazolin-5-one]
Ratio IC50 (in presence of HSA)/IC50 (in absence of HSA): +++ (ratio ≤ 25)
IC50 [1]: 20.9 to 104 µM
IC50 [2]: 2.09 to 10.4 µM
